Assay results published in patent US5776769A, “Cell-type specific methods and devices for the low temperature preservation of the cells of an animal species” (Methodist Hospital of Indiana, priority 1995, dated 1998).

What was measured:
[1] = tested on: human spermatozoa; settings: cited from earlier work
[2] = tested on: human sperm; assay: Sperm membrane integrity (dual staining, flow cytometry) after glycerol addition and removal; format: cell-based; settings: in 1M glycerol or after addition and removal of 1M glycerol by the different procedures
Excerpt: One preferred procedure to assess cell viability utilizes dual flourescent staining and flow cytometric analysis as disclosed by Garner in Assessment of Spermatozoal Function Using Dual Fluorescent Staining and Flow Cytometric Analysis, Biol. Reprod. 34, 127-138, 1986, which is hereby incorporated into this specification by reference. Propidium iodide (PI) is a bright red, nucleic acid-specific fluorophore available from the Sigma Chemical Co. PI permeates poorly into sperm cells with intact plasma membranes, however, it readily diffuses into sperm having damaged membranes and stains the DNA red. […]
Plasma membrane integrity was analyzed by placing five μl of CFDA (suspended in 0.25 mg/ml of DMSO) and 5 μl of PI (suspended in 1 mg/ml H2 O) solutions into 0.5 ml of a particular sperm suspension. […] A total of 1×10^5 spermatozoa per treatment were analyzed using a FACSTAR PLUS™ flow cytometer.
TL-HEPES medium with 2M glycerol was either one-step or stepwise added to an equal volume of the isotonic sperm suspension to achieve a final 1M glycerol concentration at 22° C. […] Sperm motility before, during, and after the different glycerol addition and removal procedures was measured by CASA. The membrane integrity of the sperm was determined by the dual staining technique and flow cytometry.

[3] = tested on: human sperm cells; assay: Glycerol removal with porous-membrane diffusion device; format: cell-based
Excerpt: A cell suspension with cryoprotectants is placed in the chamber (region 2) with an internal space/thickness of L. Two walls of the chamber are the porous membranes (regions 1 and 3) with special characteristics (e.g. membrane thickness: 150 μm, pore size: 0.22 to 0.65 μm in diameter, pore area: 70% of the total membrane surface area). For removing CPAs, isotonic cell culture medium without CPAs are continuously pumped and run through compartments (4 and 5) to quickly remove CPAs diffusing from the chamber (region 2) through the porous membrane. Meanwhile, the isotonic medium diffuses into the chamber to dilute the CPA concentration in the cell suspension. Because the porous membrane used is a nonselective membrane (pore size […]), CPAs and other solutes and solvents (water) diffuse freely across the […] with a constant cell suspension volume in the chamber. The pore size of the porous membrane, the thickness of the cell chamber, the diffusibility of CPA in the solution, the permeability coefficients of the cell membrane to water and CPA are control factors used in the design of the system. Basic assumptions and mathematical formulation describing the CPA diffusion across the porous membrane and the change of CPA concentration distribution in the chamber (i.e., the extracellular environment) are as follows:
A corresponding computer program using a finite difference method to calculate the above equations is used to simulate the mass transfer process in the system. The values of f, L2, Cf, Ci, L1, D1, D2 and hD can be used as control factors or adjustable parameters in the computer simulation. […] Calculated kinetic changes of glycerol concentration (initial 1M) at the chamber position A (center, see FIG. 19) and B (internal surface of porous membrane, see FIG. 19) are shown in FIG. 21, and the corresponding cell volume changes are calculated and predicted to be below the cell tolerance limit (1.1 times isotonic sperm volume), as shown in FIG. 22.

[4] = tested on: human sperm; assay: Sperm motility (CASA) after glycerol addition and removal procedures; format: cell-based; settings: for sperm motility loss: final 1M glycerol, 22° C.
Procedure: Sperm motility was measured by computer assisted semen analysis (CASA) using CELLSOFT™, version 3.2/C. CASA was performed before, during, and after the anisosmotic exposures of the sperm samples. All experiments were conducted at 22° C.
TL-HEPES medium with 2M glycerol was either one-step or stepwise added to an equal volume of the isotonic sperm suspension to achieve a final 1M glycerol concentration at 22° C. Glycerol in the sperm was removed by dilution either by a one-step or stepwise addition of the TL-HEPES medium with or without an osmotic buffer (sucrose) placed into the cell suspension. The detailed procedures for the glycerol addition and removal are described in Tables 2-5. Sperm motility before, during, and after the different glycerol addition and removal procedures was measured by CASA. The membrane integrity of the sperm was determined by the dual staining technique and flow cytometry.
The time interval between two steps was approximately 1-2 minutes. The volume of solution added in each step was calculated using Equations 5 or 6.
The final 90 μl of sperm suspension were further diluted by adding 180 μl of TALP solution for the CASA analysis. The time interval between two steps is approximately 1-2 minutes. The volume of diluent added in each step was calculated using Equations 7 or 8.
Add 2000 μl of isotonic solution directly to 100 μl of cell suspension with 1M glycerol.
(1) Add 2000 μl of sucrose buffer medium

| SMILES | Water permeability coefficient (Lp) ([1]; not told) | Glycerol permeability coefficient (PCPA) ([1]; 22° C., human spermatozoa) | membrane integrity of the human sperm [2] | time for removal of over 95% of 1M glycerol [3] | cell clumping, loss in motility or membrane integrity, or curling of sperm tails ([3]; 1M glycerol removal within 10 minutes) | glycerol removed from the human sperm cells ([3]; 1M glycerol, within 10 minutes) | sperm that maintained motility ([4]; eight-step FMS removal of 1M glycerol) | sperm that lost motility ([4]; eight-step FVS removal of 1M glycerol) | sperm motility loss ([4]; four-step FMS addition) | sperm motility loss ([4]; one step addition) | motile sperm that kept motility ([4]; one-step removal of 1M glycerol) | motility loss ([4]; two-step removal of 1M glycerol using sucrose as non-permeating buffer (600 mOsm)) |
| --- | --- | --- | --- | --- | --- | --- | --- | --- | --- | --- | --- | --- |
| O [Water, water] | 2.16 um/minutes/atm | – | – | – | – | – | – | – | – | – | – | – |
| OCC(O)CO [glycerol] | – | 18.3 ×10⁻⁶ cm/s | appeared to maintain membrane integrity under all experimental conditions | ≤ 10 min | without significant cell clumping, loss in motility or membrane integrity, or curling of sperm tails | over 95% | over 92% | Thirty-five percent | less than 8% | approximately 20% | Less than 30% | ~45% |
